Format in all cases: cell-based
The test system of assay [1] is pre-formed P. aeruginosa biofilms (PAO1). Nature of the assay: Effects on pre-formed P. aeruginosa biofilms (microfluidic flow cell, COMSTAT, optical density). On the procedure:
(§1) The E. coli biofilms were formed using the strain K-12 MG1655 ATCC(47076). P. aeruginosa biofilms were formed using wild type strain PAO1. For both strains, overnight cultures were diluted to an OD600 of 0.25, introduced into the microfluidic channel, and incubated with no flow at 37° C. for 2 h. LB (Luria Bertani) growth medium was then continuously flowed into the device at a rate of 10 μL/hr. As needed, this medium was supplemented with various concentrations of analog or antibiotic at specified times. In studies of biofilm inhibition, after 2 hours of cell incubation, the analog diluted in LB medium is flown into the microfluidic channel for 48 hours at 10 μL/hr. In studies of effects on pre-formed biofilms, LB is introduced over the cells at 10 μL/hr for a period of 36 to 48 hours to yield stable biofilms. Then, the analog or analog-antibiotic combination was introduced for an additional 36 to 48 hours.
(§2) Biofilms were stained in situ for microscopy. They were first treated with a Live/Dead bacterial labeling kit (Invitrogen #L7012) in which two labeling components were mixed in a 1:1 ratio to a final volume of 10 μL. The dye was introduced into the channel at 10 μL/hr, the same flow rate as during biofilm growth. This treatment was then followed by 10 μL/hr of a 100 μg/mL calcofluor (Fluorescence Brightener 28, Sigma #F3543) solution for labeling polysaccharides contained in the biofilm matrix. The dyes are fixed by flowing in 3% paraformaldehyde at the same flow rate.
(§3) Labeled samples are imaged using a confocal microscope (Zeiss LSM710). For unpatterned coverslips, Z-stacks were obtained at 7 points in each microfluidic channel, each stack was comprised of 150 slices. For patterned coverslips used while measuring the optical density of the biofilms, two stacks were obtained in each channel (i.e. one at each pinhole). The image stacks were analyzed using COMSTAT, which provides morphological characteristics. Average biofilm thickness and biomass were averaged over the image stacks obtained at each of these 7 data points in the microfluidic channel. Additionally, surface reconstructions of the biofilms were created using Imaris (Bitplane) to aid in visualization of the resulting structures.
The data corresponding to the change in optical density of the biofilms were obtained from the photodiodes using the standard methodologies. Data for each channel (the average of the response of the two photodiodes) was normalized with respect to the optical density at 48 hours; this method reflects that as of 48 hours, the biofilms have been grown under identical conditions although their optical density values may not be identical. Additionally, since the optical density data itself fluctuates as the biofilm grows, the data for each curve was fitted using a Churchill model (Churchill et al, 1972), represented by log N=[f1^−1+f2^−1]^−1 (1)

For assay [2], the system named is E. coli biofilms (K-12 MG1655). Put plainly: Biofilm maturation in the presence of AI-2 analog (microfluidic flow cell, confocal microscopy, COMSTAT). On the procedure: as §1, §2, §3
In the next assay the test system is S. typhimurium. Put plainly: DPD analogs and representative bacterial species affected (Table 1). The arrangement: key: x: DPD Analogs and representative bacterial species affected.

For `O=C(C(=O)C(O)CO)c1ccccc1` (stereo not shown) [Phenyl-DPD, Phenyl DPD], the biofilm reduction entry in assay [1] (100 uM phenyl DPD alone) is listed as “about 40%”; in assay [1] (gentamicin and 100 uM phenyl DPD combined) it was roughly 100%. The biofilm biomass in assay [1] (phenyl-DPD 100 μM combined with gentamicin 5 μg/ml, untreated 15 μm^3/μm^2) is reported as less than 2 μm^3/μm^2. For the same compound, in assay [1] (phenyl-DPD 100 μM combined with gentamicin 5 μg/ml, untreated 26 μm), the biofilm thickness amounted to 2 μm. Moreover, the “course of biofilm optical density after 48 h, in words” value in assay [1] (phenyl-DPD combined with gentamicin, continuous optical density measurement) is recorded as “reversed biofilm growth”.

For `CC(C)CC(=O)C(=O)[C@@H](O)CO` [Isobutyl-DPD, isobutyl-DPD], the average biofilm biomass in assay [2] (40 μM, 48 h, LB only 14 μm^3/μm^2) was 3.5 μm^3/μm^2. Besides, the average biofilm thickness in assay [2] (40 μM, 48 h, LB only 22 μm) is 7 μm. Also, the “inhibition of biofilm growth” value in assay [2] (40 μM, 48 h continuous exposure in LB) is roughly 70%. Besides, in assay [2] (100 μM versus 40 μM), the “effect on biofilm thickness of increasing concentration, in words” value was “no further inhibitory effect”. In addition, the “bacterial species affected: S. typhimurium” value in the assay on S. typhimurium was “x”.

Source of the values: patent US8952192B2, “Phosphorylated and branched dihydroxy-pentane-dione (DPD) analogs as quorum sensing inhibitors in bacteria” (University of Maryland, College Park, priority 2011, dated 2015).
